In ChEMBL document CHEMBL3994669, “Curcumin May (Not) Defy Science” (2017):

Tests used:
Assay type in all cases: functional
[1] = system: Homo sapiens; test: Antirheumatoid arthritic activity in patient assessed as disease activity score at 500 mg, po bid for 8 weeks in presence of diclofenac sodium (reference value: 6.44 +/- 0.51)
[2] = system: Homo sapiens; test: Anti-inflammatory activity in COPD patient assessed as change in gammaGTP level at 90 mg, po bid for 24 weeks (-1.2%)
[3] = system: Homo sapiens; test: Anti-inflammatory activity in COPD patient assessed as change in C-reactive protein level at 90 mg, po bid for 24 weeks (11.1%)
[4] = system: Homo sapiens; test: Antirheumatoid arthritic activity in patient assessed as visual analogue scale at 500 mg, po bid for 8 weeks in presence of diclofenac sodium (reference value: 77.25 +/- 9.65)
[5] = system: Homo sapiens; test: Anti-inflammatory activity in COPD patient assessed as change in HDL-C level at 90 mg, po bid for 24 weeks (2%)
[6] = system: Homo sapiens; test: Anti-inflammatory activity in COPD patient assessed as change in HbA1c level at 90 mg, po bid for 24 weeks relative to placebo treated control
[7] = system: Homo sapiens; test: Anti-inflammatory activity in COPD patient assessed as change in forced expiratory volume in 1 second at 90 mg, po bid for 24 weeks (-3.6%)
[8] = system: Homo sapiens; test: Anti-inflammatory activity in COPD patient assessed as change in SBP at 90 mg, po bid for 24 weeks (reference value: 1.4%)
[9] = system: Homo sapiens; test: Anti-inflammatory activity in COPD patient assessed as change in triglyceride level at 90 mg, po bid for 24 weeks (14.5%)
[10] = system: Homo sapiens; test: Antirheumatoid arthritic activity in patient assessed as disease activity score at 500 mg, po bid for 8 weeks (reference value: 6.4 +/- 0.73)
[11] = system: Homo sapiens; test: Anti-inflammatory activity in COPD patient assessed as change in creatinine level at 90 mg, po bid for 24 weeks (1.4%)
[12] = system: Homo sapiens; test: Anti-inflammatory activity in COPD patient assessed as change in AT-LDL level at 90 mg, po bid for 24 weeks (14.8%)
[13] = system: Homo sapiens; test: Antirheumatoid arthritic activity in patient assessed as visual analogue scale at 500 mg, po bid for 8 weeks (reference value: 68.57 +/- 17.14)
[14] = system: Homo sapiens; test: Anti-inflammatory activity in COPD patient assessed as change in LDL-C level at 90 mg, po bid for 24 weeks (11.4%)
[15] = system: Homo sapiens; test: Anti-inflammatory activity in COPD patient assessed as change in blood sugar level at 90 mg, po bid for 24 weeks (14.5%)
[16] = system: Homo sapiens; test: Anti-inflammatory activity in COPD patient assessed as change in BMI at 90 mg, po bid for 24 weeks (reference value: -0.7%)
[17] = system: Homo sapiens; test: Anti-inflammatory activity in COPD patient assessed as change in uric acid level at 90 mg, po bid for 24 weeks (2.3%)
[18] = system: Homo sapiens; test: Anti-inflammatory activity in COPD patient assessed as change in SAA-LDL level at 90 mg, po bid for 24 weeks (10.8%)
[19] = system: Homo sapiens; test: Anti-inflammatory activity in COPD patient assessed as change in DBP at 90 mg, po bid for 24 weeks (reference value: 2.9%)
[20] = system: Homo sapiens; test: Antirheumatoid arthritic activity in patient assessed as disease activity score at 50 mg, po bid for 8 weeks (reference value: 6.72 +/- 0.87)
[21] = system: Homo sapiens; test: Antirheumatoid arthritic activity in patient assessed as visual analogue scale at 50 mg, po bid for 8 weeks (reference value: 78.25 +/- 11.25)

SMILES: COc1cc(/C=C/C(=O)CC(=O)/C=C/c2ccc(O)c(OC)c2)ccc1O [CURCUMIN]
- Activity [1]: 3.58
- Activity [2]: -5.7%
- Activity [3]: -12.5%
- Activity [4]: 34.29
- Activity [5]: -2.8%
- Activity [6]: 0.4%
- Activity [7]: -1.9%
- Activity [8]: -1.3%
- Activity [9]: 9.2%
- Activity [10]: 3.55
- Activity [11]: 2.9%
- Activity [12]: -1.6%
- Activity [13]: 27.5
- Activity [14]: 4.6%
- Activity [15]: 5.8%
- Activity [16]: 0.9%
- Activity [17]: 2.4%
- Activity [18]: -2%
- Activity [19]: 3.5%

SMILES: O=C([O-])Cc1ccccc1Nc1c(Cl)cccc1Cl.[Na+] [DICLOFENAC SODIUM]
- Activity [20]: 3.89
- Activity [21]: 39.17
